# Data taken from patent publication US7576115B2, “Heterocyclic compounds and thrombopoietin receptor activators” (Nissan Chemical Industries, Ltd., priority 2003, dated 2009).
# Target: T1, thrombopoietin (TPO) receptor (Homo sapiens, UniProt P40238)
# T1 construct: expressed in transfected cells; host or cells: human leukemic cell line UT7/EPO, stably transformed (UT7/EPO-mpl)
# T1 sequence (P40238 26-635): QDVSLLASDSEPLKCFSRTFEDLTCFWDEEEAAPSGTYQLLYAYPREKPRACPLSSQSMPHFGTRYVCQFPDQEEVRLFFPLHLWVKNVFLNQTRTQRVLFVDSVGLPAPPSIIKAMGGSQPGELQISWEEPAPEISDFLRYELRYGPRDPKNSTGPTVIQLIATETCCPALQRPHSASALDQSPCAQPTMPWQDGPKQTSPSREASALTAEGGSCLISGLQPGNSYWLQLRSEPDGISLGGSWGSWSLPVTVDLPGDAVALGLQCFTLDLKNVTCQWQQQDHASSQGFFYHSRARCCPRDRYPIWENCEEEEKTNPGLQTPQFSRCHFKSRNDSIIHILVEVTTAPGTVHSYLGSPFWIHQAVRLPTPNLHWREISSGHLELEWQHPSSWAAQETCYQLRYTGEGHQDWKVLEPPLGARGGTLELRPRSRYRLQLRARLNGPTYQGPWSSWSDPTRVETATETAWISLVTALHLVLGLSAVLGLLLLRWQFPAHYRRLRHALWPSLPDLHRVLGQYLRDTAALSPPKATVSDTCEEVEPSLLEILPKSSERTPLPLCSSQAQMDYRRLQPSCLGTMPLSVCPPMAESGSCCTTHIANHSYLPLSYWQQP
# Test: Stimulation of proliferation of TPO-dependent cell line UT7/EPO-mpl (WST-8)
# Assay type: cell-based
# Details: FIG. 1; concentration-dependent; 4 days incubation, WST-8 absorbance at 450 nm
# Experimental: The reactivity of the compound of Synthetic Example 3 of the present invention with thrombopoietin (TPO) receptor was assayed using a human leukemic cell line, UT7/EPO-mpl.
# (§1) UT7/EPO-mpl is a stable transformed cell line obtained by introducing into human leukemic cell line UT7/EPO a vector that induces expression of human TPO receptor (c-mp1) under control of a cytomegaloviral promoter by the method of Takatoku et al. (J. Biol. Chem., 272:7259-7263 (1997)). […] These two cell lines were subcultured in Iscove's modified Dulbecco's medium (IMDM; GIBCO) containing 10% fetal bovine serum (FBS; TRACE SCIENTIFIC, Thermo Electron or BioWest) using a CO2 incubator (5% CO2, 37° C.)
# (§2) The subcultured cells described above were washed twice with phosphate buffered saline (PBS) and suspended in IMDM containing 10% FBS at a cell density of 6×10^4 cells/ml. The cell suspension was transferred to a 96-well tissue culture plate (CORNING) in 100 μl aliquots. Then either TPO (PeproTech EC) or the compound of Synthetic Example 3 dissolved in dimethyl sulfoxide (DMSO) was diluted 83-fold with IMDM containing 10% FBS and added to the aforementioned cell suspension in 20 μl aliquots. The suspension was incubated in a CO2 incubator (5% Co2, 37° C.) for 4 days. Cell proliferation was assayed using WST-8 reagent (Kishida Chemical Co., Ltd.) according to instructions by the manufacturer. A 10 μl aliquot of 5 mM WST-8 reagent solution was added to each well of the tissue culture plate, and the plate was incubated at 37° C. for 4 h. The formazan pigment generated was detected by measuring the absorbance at 450 nm with a 96-well microplate reader (Nihon Molecular Devices, Spectramax 190).
# The compounds of the following Synthetic Examples were tested according to the method of Assay Example 1 to determine the concentration of each compound that yields a growth rate corresponding to 50% of the growth of human leukemic cell line UT-7/EPO-mpl observed in the presence of 10 ng/ml TPO (EC50).
row,SMILES,proliferation of TPO-responsive UT7/EPO-mpl cells
1,"CC(=NNC(=O)c1ccc(C(=O)O)cc1)c1nn(C)c(-c2ccc(C(C)(C)C)cc2)c1O [Synthetic Example 3, 4-[(2-{1-[5-(4-tert-butylphenyl)-4-hydroxy-1-methyl-1H-pyrazol-3-yl]ethylidene}hydrazino)carbonyl]benzoic acid]",stimulated

# Same assay, conditions: concentration that yields a growth rate corresponding to 50% of the growth of UT-7/EPO-mpl observed in the presence of 10 ng/ml TPO
row,SMILES,EC50 [nM]
1,C/C(=N\NC(=O)c1ccc(C(=O)O)cc1N)c1nn(C)c(-c2ccc(C(F)(F)F)cc2)c1O [compound 228],1.56
2,C/C(=N\NC(=O)c1ccc(C(=O)NC2CCCC2)s1)c1csc(-c2ccc(Cl)c(Cl)c2)c1O [compound 178],6.51
3,C/C(=N\NC(=S)Nc1ccccc1CC(N)=O)c1nn(C)c(-c2ccc(C(F)(F)F)cc2)c1O [compound 161],7.95
4,C/C(=N\NC(=O)c1ccc(C(=O)NCCCN(C)C)s1)c1csc(-c2ccc(Cl)c(Cl)c2)c1O [compound 226],4.08
5,C/C(=N\NC(=O)c1sc(N)nc1C(F)(F)F)c1csc(-c2ccc(Cl)c(Cl)c2)c1O [compound 181],5.65
6,C/C(=N\NC(=O)c1ccc(C(N)=O)s1)c1csc(-c2ccc(Cl)c(Cl)c2)c1O [compound 179],6.6
7,CC(=O)Nc1cccc(NC(=S)N/N=C(\C)c2nn(C)c(-c3ccc(C(F)(F)F)cc3)c2O)c1 [compound 157],6.32
8,C/C(=N\NC(=O)c1ccc(C(=O)O)c([N+](=O)[O-])c1)c1csc(-c2ccc(C)c(C)c2)c1O [compound 212],0.529
9,C/C(=N\NC(=S)Nc1ccc2[nH]c(=O)[nH]c2c1)c1csc(-c2ccc(Cl)c(Cl)c2)c1O [compound 154],5.69
10,C/C(=N\NC(=O)c1ccc(N)c(N)c1)c1csc(-c2ccc(Cl)c(Cl)c2)c1O [compound 176],36.8
11,C/C(=N\NC(=S)Nc1cc(C(=O)O)cc([N+](=O)[O-])c1)c1nn(C)c(-c2ccc(Cl)c(Cl)c2)c1O [compound 164],5.73
12,C/C(=N\NC(=S)Nc1cccc(C(=O)O)c1)c1csc(-c2ccc(C)c(C)c2)c1O [compound 136],7.05
13,C/C(=N\NC(=O)c1ccc2cc(C(=O)O)ccc2c1)c1csc(-c2ccc(Cl)c(Cl)c2)c1O [compound 169],7.41
14,C/C(=N\NC(=S)Nc1ccc2cn[nH]c2c1)c1nn(C)c(-c2ccc(Cl)c(Cl)c2)c1O [compound 155],11.2

# Test system: Human bone marrow CD34+ cells
# Test: Megakaryocyte colony stimulating activity (megakaryocyte colony forming method)
# Assay type: cell-based
# Details: Concentration 0.3 μg/ml; 11 days; colonies of at least 8 stained megakaryocyte cells
# Experimental: The action of the compound of Synthetic Example 2 of the present invention on the proliferation, differentiation and maturation of megakaryocyte cells was measured by the megakaryocyte colony forming method using human bone marrow cells. Human bone marrow CD34^+ cells (Cambrex Bio Science Walkersville) were incubated on 2-well chamber slide for 11 days in a CO2 incubator (5% CO2, 37° C.) using MegaCult™-C (StemCell Technologies) containing 0.1% (v/v) of the compound of Synthetic Example 2 dissolved in DMSO. After dehydration and fixation, the cells were stained with an anti-glycoprotein IIb/IIIa antibody in accordance with the instruction by the manufacturer. The colonies consisting of at least 8 stained megakaryocyte cells in each well was counted under a microscope. The megakaryocyte colony counts of duplicate or more assays were averaged.
row,SMILES,Megakaryocyte colony Count
1,"CC(=NNC(=S)Nc1ccc(C(=O)O)cc1)c1nn(C)c(-c2ccc(Cl)c(Cl)c2)c1O [Synthetic Example 2, 4-{[(2-{1-[5-(3,4-dichlorophenyl)-4-hydroxy-1-methyl-1H-pyrazol-3-yl]ethylidene}hydrazino)carbonothioyl]amino}benzoic acid]",25

# Same assay, conditions: Concentration 1 μg/ml; 11 days; colonies of at least 8 stained megakaryocyte cells
row,SMILES,Megakaryocyte colony Count
1,"CC(=NNC(=S)Nc1ccc(C(=O)O)cc1)c1nn(C)c(-c2ccc(Cl)c(Cl)c2)c1O [Synthetic Example 2, 4-{[(2-{1-[5-(3,4-dichlorophenyl)-4-hydroxy-1-methyl-1H-pyrazol-3-yl]ethylidene}hydrazino)carbonothioyl]amino}benzoic acid]",48

# Test system: UT7/EPO cells
# Test: Proliferation of mother cell line UT7/EPO expressing no TPO receptor (WST-8)
# Assay type: cell-based, human
# Details: FIG. 2
# Experimental: as §1
# as §2, with “A 10 μl aliquot of 5 mM WST-8 reagent solution was added to each well of the tissue culture plate, and the plate was incubated at 37° C. for 4 h.” left out
row,SMILES,"effect on proliferation of UT7/EPO, the mother cell line"
1,"CC(=NNC(=O)c1ccc(C(=O)O)cc1)c1nn(C)c(-c2ccc(C(C)(C)C)cc2)c1O [Synthetic Example 3, 4-[(2-{1-[5-(4-tert-butylphenyl)-4-hydroxy-1-methyl-1H-pyrazol-3-yl]ethylidene}hydrazino)carbonyl]benzoic acid]",no effect
